{
  "source": "patent US20100203044A1",
  "about": "“DR6 ANTAGONISTS AND USES THEREOF IN TREATING NEUROLOGICAL DISORDERS” (priority 2006, published 2010)",
  "key": {"[1]": {"conditions": "cited from earlier work"}, "[2]": {"system": "sensory neurons", "assay": "NGF deprivation assay in Campenot Chambers, local sensory axonal degeneration", "type": "cell-based, mouse", "conditions": "for sensory axonal degeneration induced by NGF withdrawal: 30 μg/ml in axonal compartments with anti-NGF, 0, 6 and 24 hours", "method": "Materials and methods used to generate the data shown in this figure are as follows. To examine whether ligand is required for DR6 function in sensory axonal degeneration, a compartmented culture analysis of sensory axon growth and degeneration was carried out as follows. A Campenot nerve cell chamber system was used to isolate neuronal processes (axons) from the cell bodies in different compartments (separate fluid environments), analogous to neuronal cell bodies in one location of the nervous system projecting their axons to a distal target in another location. The assay was carried out as originally described by Campenot (Campenot et al., J. Neurosci. 11(4): 1126-39 (1991)) with the following modifications. Briefly, 35-mm tissue culture dishes were coated with PDL/Laminin and scratched with a pin rake (Tyler Research) to generate tracks, as illustrated for example in FIGS. 1 and 4 of Campenot et al., supra.\nA drop of culture medium (Neurobasal medium with B27 supplement, 25 ng/ml of NGF, and 4 g/L of methylcellulose) was placed on the scratched substratum. A Teflon divider (Tyler Research) was seated on silicone grease and a dab of silicone grease was placed at the mouth of the center slot. Dissociated sensory neurons derived from E12.5 mouse DRGs were suspended in methylcellulose-thickened medium and loaded into a disposable sterile syringe fitted with a 22-gauge needle. This cell suspension was injected into the center slots of each compartmented dish under the dissecting microscope. The neurons were allowed to settle overnight. […]\nTo trigger local axonal degeneration, NGF-containing medium from axonal compartments was substituted with neurobasal medium with an NGF blocking antibody (anti-NGF, Genentech, Inc., 20 ug/ml). Zero hours, 6 hours, or 24 to 48 hours following NGF deprivation, sensory neurons were fixed in 4% PFA for 30 minutes at room temperature and processed for immunofluorescence staining with axonal marker TUJ-1 (Covance, 1:500 dilution) to visualize degenerating axons by fluorescence microscopy (FIG. 11B) (as above described in Example 7). […]\nTo examine whether ligand is required for DR6 function in axonal degeneration program triggered by NGF withdrawal, 30 μg/ml of hDR6-ECD-Fc immunoadhesin protein (described in EXAMPLE 3 above) or 30 μg/ml of a control Fc (Genentech, Inc.) was included together with anti-NGF treatment in axonal compartments of Campenot Chambers. Zero to 24 hours after NGF deprivation, axons in Campenot Chambers were fixed with 4% PFA/PBS and visualized by immuno-fluorescence staining with TUJ-1 (1:500, Covance)/secondary antibody conjugated to a fluorescence group Alexa 488 (Molecular Probes, BD) (FIG. 11B). […]"}, "[3]": {"system": "DR6-AP binding sites on BAX null sensory axons", "assay": "in situ DR6-AP sensory axon binding assay after NGF deprivation", "type": "cell-based, mouse", "conditions": "BAX null sensory axons E12.5; BACE inhibitor at 1 uM", "method": "For the in situ DR6-AP sensory axon binding assay, either wild-type or Bax null sensory explants were cultured in Neurobasal medium/B27 (Invitrogen) as outlined in the Examples 7-8 above, with 50 ng/ml NGF (Roche). Two days post-plating, DRG explants were either left untreated or deprived from NGF as described above in Examples 7-8. Bax inhibitory peptide was added where indicated on FIG. 12B (10 uM, Bax-V5, Tocris). Twelve hours post-NGF deprivation, DRG explants were washed twice with the binding buffer (HBSS, Gibco Cat. No. 14175-095, with 0.2% BSA, 0.1% NaN3, 5 mM CaCl2, 1 mM MgCl2, 20 mM HEPES, pH=7.0). AP binding assay was then carried out by making a 1:1 mixture of DR6-AP conditioned medium and the binding buffer (or control AP conditioned medium and the binding buffer), which was applied directly to DRG explants in 8-well culture slides (Becton, Dickinson and Company) and incubated for 90 minutes at room temperature.\nFollowing the incubation, unbound DR6-AP proteins were washed away by rinsing DRG explants five times with the binding buffer. DRG explants were then fixed with 3.7% formaldehyde diluted in PBS, for 12 minutes at room temperature. The remaining formaldehyde was removed by rinsing DRG explants 3 times with HBS buffer (20 mM HEPES pH=7.0, 150 mM NaCl). Endogenous AP activity was blocked by heat inactivation at 65° C. in HBS buffer for 30 minutes. […]"}, "[4]": {"system": "commissural neurons", "assay": "dorsal spinal cord (commissural explant) survival assay", "type": "cell-based, rat", "conditions": "for commissural axon degeneration: 48 hours, hDR6-ECD-Fc at 30 μg/ml and 10 μg/ml", "method": "To examine functional roles of DR6 in axonal degeneration and programmed cell death of commissural neurons, an RNAi-based dorsal spinal cord survival assay (Kennedy et al., Cell, 78:425-435 (1994); Wang et al., supra, 1999) was conducted (see FIG. 3). E13 rat or E11.5 mouse embryos were placed in L15 medium (Gibco) and siRNAs (IDT) together with green fluorescent protein (“GFP”)-encoding plasmids were injected into the neural tubes. The siRNAs and plasmids were then delivered to dorsal progenitor cells by electroporation. Dorsal spinal cord explants were dissected out, embedded into a 3D-collagen gel matrix, and cultured in Opti-MEM/F12 medium (Invitrogen) with recombinant netrin-1 ([…]) and 5% horse serum (Sigma) at 37° C. in a 5% CO2 environment. Within 16 hours in response to chemo-attractant netrin-1, commissural axons grow out of the explant into the collagen matrix gel (Kennedy et al., supra, 1994). Commissural axons are visualized by GFP fluorescence by observation using an inverted microscope.\nMaterials and methods used to generate the data shown in this figure are as follows. To investigate physiological roles of DR6 receptor in axonal degeneration and programmed cell death of commissural neurons, a dorsal spinal cord survival assay according to protocols known in the art (Kennedy et al., Cell, 78:425-435 (1994); Wang et al., Nature, 401:765-769 (1999)) was performed (with data shown in FIG. 4B). E13 rat embryos were placed in L15 medium (Gibco) and injected into their neural tubes with the following siRNA constructs (FIG. 4B): […]\nA dorsal spinal cord survival assay (as described in Example 2 above) was conducted using anti-DR6 antibodies. Microscopic observation (using green fluorescence channel for GFP) was employed to visualize commissural axons. […] To visualize GFP-expressing commissural axons, pictures were taken on the Axiovert 200 Zeiss inverted microscope (in green fluorescence channel for GFP) using AxioVision40 Release 4.5.0.0 SP1 (March 2006) computer software from Carl Zeiss Imaging Solutions. […]"}},
  "note": "Entries after “also recorded” stand apart in the source; their conditions may differ. Residues, ends and D or L forms follow the SMILES beside them. *: point of attachment. Cbz = O=C(OCc1ccccc1)*; CH2F = FC*",
  "data": [
    {"compound": "CC12CC3CC(C)(C1)CC(N)(C3)C2", "note": "[Memantine]", "values": [
      {"measurement": "symptoms across SIB, ADCS-ADL19, CIBIC-Plus and NPI outcome measures", "setting": "[1]; human, in vivo", "result": "improvement and stabilization of symptoms"},
      {"measurement": "outcome measures SIB, ADCS-ADL19, CIBIC-Plus, NPI, BGP versus placebo", "setting": "[1]; patients taking stable doses of Donepezil", "result": "benefit over placebo"}
    ]},
    {"compound": "CC[C@H](C)[C@H](NC(=O)OCc1ccccc1)C(=O)N[C@@H](CCC(=O)OC)C(=O)N[C@H](C(=O)N[C@@H](CC(=O)OC)C(=O)CF)[C@@H](C)O", "note": "[caspase-8 inhibitor, Z-IETD-FMK, reference compound] (Cbz-IE(OMe)TD(OMe)-CH2F)", "values": [
      {"measurement": "sensory axonal degeneration after NGF deprivation", "setting": "[2]; neurons cultured 5 days, then 24 hours, SP 600125 1 uM, Z-IETD-FMK 10 uM, Z-DEVD-FMK 10 uM", "result": "delayed"}
    ]},
    {"compound": "OM99-2 [reference compound]", "values": [
      {"measurement": "sensory axonal degeneration in the absence of NGF", "setting": "[2]; BACE inhibitor at 1 uM", "result": "blocked"},
      {"measurement": "disappearance of DR6-AP binding sites from sensory axons following NGF withdrawal", "setting": "[3]", "result": "can block the disappearance of DR6-AP binding sites"}
    ]},
    {"compound": "hDR6-ECD-Fc: human DR6 extracellular domain sequence fused with Fc, SEQ ID NO: 4", "values": [
      {"measurement": "sensory axonal degeneration induced by NGF withdrawal", "setting": "[2]", "result": "delayed sensory axonal degeneration; also recorded: delayed the onset of axonal degeneration"},
      {"measurement": "sensory axonal degeneration induced by NGF withdrawal", "setting": "[2]; listed as DR6-Fc", "result": "can be delayed"},
      {"measurement": "commissural axon degeneration", "setting": "[4]", "result": "delayed"},
      {"measurement": "commissural axon degeneration", "setting": "[4]; listed as DR6-Fc", "result": "can be delayed"}
    ]},
    {"compound": "(L)-HIV-TAT48-57-PP-JBD20 [L-JNK-I, reference compound]", "values": [
      {"measurement": "axonal degeneration of commissural neurons", "setting": "[4]; JNK signaling blocked by peptide inhibitor at 1 μM", "result": "partially blocked axonal degeneration"}
    ]}
  ]
}
